Some results are limits rather than exact numbers.

The experiment concerns the target T1, Human complement C1s enzyme (Homo sapiens, UniProt P09871).
T1 construct: purified from human serum, Complement Technology, Inc; purchased Complement Technology, Inc; host or cells: human serum
T1 sequence (P09871 438-688 limits assumed): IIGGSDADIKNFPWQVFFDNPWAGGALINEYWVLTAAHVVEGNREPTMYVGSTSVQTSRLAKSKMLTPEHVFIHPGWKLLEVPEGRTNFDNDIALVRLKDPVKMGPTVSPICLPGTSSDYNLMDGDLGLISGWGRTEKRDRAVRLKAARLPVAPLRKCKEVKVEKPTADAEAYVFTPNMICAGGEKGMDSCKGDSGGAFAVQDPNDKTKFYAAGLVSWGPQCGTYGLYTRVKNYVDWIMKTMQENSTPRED
T1 sequence (P09871 16-437 partner limits assumed): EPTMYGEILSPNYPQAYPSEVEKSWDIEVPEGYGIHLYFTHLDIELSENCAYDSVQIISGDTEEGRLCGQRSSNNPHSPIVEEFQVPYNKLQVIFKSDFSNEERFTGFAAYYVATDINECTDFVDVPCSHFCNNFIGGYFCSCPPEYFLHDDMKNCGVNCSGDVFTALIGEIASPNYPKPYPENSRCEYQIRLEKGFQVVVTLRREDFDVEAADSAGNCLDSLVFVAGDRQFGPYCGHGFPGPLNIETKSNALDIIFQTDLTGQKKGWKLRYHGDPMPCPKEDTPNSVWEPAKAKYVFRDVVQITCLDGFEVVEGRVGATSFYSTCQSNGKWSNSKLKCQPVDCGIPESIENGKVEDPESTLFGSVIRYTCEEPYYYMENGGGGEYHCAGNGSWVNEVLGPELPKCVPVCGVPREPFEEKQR
The experiment can be described thus: Human C1s Enzyme Assay. The format is biochemical. As to conditions: human C1s 1.16 nM, 5 min preincubation, substrate Z-L-Lys-SBzl 100 μM, A405; read-out: C1s Protease Activity. A digest of the protocol:
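C1s purified from human serum (1.16 nM final) was preincubated with compound for 5 min at room temperature in 50 mM Tris, 1 M NaCl, pH 7.5. Z-L-Lys-SBzl and DTNB were then added at 100 μM each, and A405 was followed for 30 min. IC50 came from nonlinear regression of reaction rates.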
Regarding `C[C@@]12C[C@@H]1N(C(=O)CNC(=O)c1ccc(Oc3ccccc3)cc1)[C@H](C(=O)NCc1cc(/C(N)=N/S(N)(=O)=O)cs1)C2` [Compound 205, (1S,3S,5S)-5-methyl-2-((4-phenoxybenzoyl)glycyl)-N-((4-(N-sulfamoylcarbamimidoyl)thiophen-2-yl)methyl)-2-azabicyclo[3.1.0]hexane-3-carboxamide], the IC50 was > 1000 nM. As for `C[C@@]12C[C@@H]1N(C(=O)CNC(=O)c1ccc(Oc3ccccc3)cc1)[C@H](C(=O)Nc1ccc3c(C(=N)N)csc3c1)C2` [Compound 237, (1S,3S,5S)-N-(3-carbamimidoylbenzo[b]thiophen-6-yl)-5-methyl-2-((4-phenoxybenzoyl)glycyl)-2-azabicyclo[3.1.0]hexane-3-carboxamide], the figure is 100 to 1000 nM.

Turning to `C[C@@]12C[C@@H]1N(C(=O)CNC(=O)CCCOc1ccccc1)[C@H](C(=O)NCc1cc(C(=N)N)cs1)C2` [Compound 44, (1S,3S,5S)-N-((4-carbamimidoylthiophen-2-yl)methyl)-5-methyl-2-((4-phenoxy-butanoyl)glycyl)-2-azabicyclo[3.1.0]hexane-3-carboxamide], the IC50 is < 100 nM.

In the case of `CC(=O)ONC(=N)c1csc(CNC(=O)[C@@H]2C[C@]3(C)C[C@@H]3N2C(=O)CNC(=O)c2ccc(Oc3ccccc3)cc2)c1` [Compound 39, (1S,3S,5S)-N-((4-(N-acetoxycarbamimidoyl)thiophen-2-yl)methyl)-5-methyl-2-((4-phenoxybenzoyl)glycyl)-2-azabicyclo[3.1.0]hexane-3-carboxamide], the IC50 lay within 100 to 1000 nM. The figure for `C[C@@H](NC(=O)[C@@H]1C[C@@H](OC(F)F)CN1C(=O)CNC(=O)CCCOc1ccccc1)c1cc(C(=N)N)cs1` [Compound 123, (2S,4R)-N-((R)-1-(4-carbamimidoylthiophen-2-yl)ethyl)-4-(difluoromethoxy)-1-((4-phenoxybutanoyl)glycyl)pyrrolidine-2-carboxamide] is < 100 nM. As for `Cc1ccccc1[C@H]1C[C@@H](C(=O)N[C@H](C)c2cc(C(=N)N)cs2)N(C(=O)CNC(=O)c2ccc(Oc3ccccc3)cc2)C1` [Compound 238, (2S,4R)-N-((R)-1-(4-carbamimidoylthiophen-2-yl)ethyl)-1-((4-phenoxybenzoyl)glycyl)-4-(o-tolyl)pyrrolidine-2-carboxamide], the figure is < 100 nM; as for `CC(C)O[C@@H]1C[C@@H](C(=O)N[C@H](C)c2cc(C(=N)N)cs2)N(C(=O)CNC(=O)CCCOc2ccccc2)C1` [Compound 166, (2S,4R)-N-((R)-1-(4-carbamimidoylthiophen-2-yl)ethyl)-4-isopropoxy-1-((4-phenoxybutanoyl)glycyl)pyrrolidine-2-carboxamide], < 100 nM.

For `N=C(N)c1csc([C@@H](Cc2ccccc2)NC(=O)[C@@H]2CC3(CN2C(=O)CNC(=O)CCCOc2ccccc2)OCCO3)c1` [Compound 176, (S)-N-((R)-1-(4-carbamimidoylthiophen-2-yl)-2-phenylethyl)-7-((4-phenoxybutanoyl)glycyl)-1,4-dioxa-7-azaspiro[4.4]nonane-8-carboxamide], the IC50 is > 1000 nM.

On to `C[C@@]12C[C@@H]1N(C(=O)CNC(=O)c1ccccc1Oc1ccccc1)[C@H](C(=O)NCc1cc(C(=N)N)cs1)C2` [Compound 145, (1S,3S,5S)-N-((4-carbamimidoylthiophen-2-yl)methyl)-5-methyl-2-((2-phenoxybenzoyl)glycyl)-2-azabicyclo[3.1.0]hexane-3-carboxamide], for which the IC50 is < 100 nM.

Take `CC(C)C[C@H](NC(=O)[C@@H]1CC2(CN1C(=O)CNC(=O)CCCOc1ccccc1)OCCO2)c1cc(C(=N)N)cs1` [Compound 221, (S)-N-((S)-1-(4-carbamimidoylthiophen-2-yl)-3-methylbutyl)-7-((4-phenoxybutanoyl)glycyl)-1,4-dioxa-7-azaspiro[4.4]nonane-8-carboxamide]: the IC50 was > 1000 nM.

Values taken from patent US20250171423A1, “PHARMACEUTICAL COMPOUNDS FOR THE TREATMENT OF COMPLEMENT MEDIATED DISORDERS” (Achillion Pharmaceuticals, Inc., priority 2020, published 2025).
